What was measured:
Puccinia recondita = experiment: Test Example E: Brown rust on wheat; type: in vivo; settings: 250 ppm drug solution sprayed on test plant
Phytophthora infestans = experiment: whole plant or invertebrate; type: in vivo; settings: 250 ppm drug solution sprayed on test plant
Plasmopara viticola = experiment: Test Example G: Downy mildew on vine; settings: 250 ppm drug solution sprayed (2.5 ml/pot), grape Neomuscat, 7 to 10 days after inoculation
[1] = test system: Colletotrichum orbiculare; experiment: Test Example H: Anthracnose on cucumber; settings: 250 ppm drug solution sprayed (2.5 ml/pot), cucumber Sagami Hanjiro, 6 to 10 days after inoculation
Botrytis cinerea = experiment: Test Example B: Gray mold on tomato; settings: 250 ppm drug solution sprayed on test plant
[2] = test system: Blumeria graminis f. sp. hordei; experiment: Test Example D: Powdery mildew on barley; settings: 250 ppm drug solution sprayed on test plant
Magnaporthe grisea = experiment: whole plant or invertebrate; type: in vivo; settings: 250 ppm drug solution sprayed on test plant
Alternaia brassicicola = experiment: Test Example C: Alternaria sooty spot on cabbage; type: in vivo; settings: 250 ppm drug solution sprayed on test plant
Text: Seeds of a test plant (cabbage variety: Shikidori) were planted and cultivated until the cotyledons extended.
<Control Value> Control value=100{1−(n/3)}

| SMILES | Test E control value (Puccinia recondita) | Test F control value (Phytophthora infestans) | Test G control value (Plasmopara viticola) | Test H control value [1] | Test B control value (Botrytis cinerea) | Test D control value [2] | Test A control value (Magnaporthe grisea) | Test C control value (Alternaia brassicicola) |
| --- | --- | --- | --- | --- | --- | --- | --- | --- |
| CCCc1ccc(=O)n(CC)c1-c1c(F)cc(OCC)cc1F [compound 456] | H (more than 50% control value) | L (50% or less control value) | H (more than 50% control value) | H (more than 50% control value) | H (more than 50% control value) | H (more than 50% control value) | H (more than 50% control value) | H (more than 50% control value) |
| CCCc1cc(Cl)c(=O)n(CC)c1-c1c(F)cc(OCC)cc1F [compound 457] | H (more than 50% control value) | L (50% or less control value) | L (50% or less control value) | H (more than 50% control value) | H (more than 50% control value) | H (more than 50% control value) | H (more than 50% control value) | H (more than 50% control value) |
| CCCc1cc(Br)c(=O)n(CC)c1-c1c(F)cc(OCC)cc1F [compound 458] | H (more than 50% control value) | L (50% or less control value) | H (more than 50% control value) | H (more than 50% control value) | H (more than 50% control value) | H (more than 50% control value) | H (more than 50% control value) | H (more than 50% control value) |
| C#CCOc1cc(F)c(-c2c(CCC)ccc(=O)n2CC)c(F)c1 [compound 459] | H (more than 50% control value) | L (50% or less control value) | H (more than 50% control value) | H (more than 50% control value) | H (more than 50% control value) | H (more than 50% control value) | H (more than 50% control value) | H (more than 50% control value) |
| CC#CCOc1cc(F)c(-c2c(CCC)ccc(=O)n2CC)c(F)c1 [compound 460] | H (more than 50% control value) | L (50% or less control value) | H (more than 50% control value) | H (more than 50% control value) | H (more than 50% control value) | H (more than 50% control value) | H (more than 50% control value) | H (more than 50% control value) |
| CC#CCOc1cc(F)c(-c2c(CCC)cc(Cl)c(=O)n2CC)c(F)c1 [compound 461] | H (more than 50% control value) | L (50% or less control value) | H (more than 50% control value) | H (more than 50% control value) | H (more than 50% control value) | H (more than 50% control value) | H (more than 50% control value) | H (more than 50% control value) |
| CC#CCOc1cc(F)c(-c2c(CCC)cc(Br)c(=O)n2CC)c(F)c1 [compound 462] | H (more than 50% control value) | H (more than 50% control value) | L (50% or less control value) | H (more than 50% control value) | H (more than 50% control value) | L (50% or less control value) | L (50% or less control value) | H (more than 50% control value) |
| C#CCOc1cc(F)c(-c2c(CCC)cc(Cl)c(=O)n2CC)c(F)c1 [compound 463] | H (more than 50% control value) | L (50% or less control value) | H (more than 50% control value) | H (more than 50% control value) | H (more than 50% control value) | H (more than 50% control value) | H (more than 50% control value) | H (more than 50% control value) |
| C#CCOc1cc(F)c(-c2c(CCC)cc(Br)c(=O)n2CC)c(F)c1 [compound 464] | H (more than 50% control value) | L (50% or less control value) | L (50% or less control value) | H (more than 50% control value) | H (more than 50% control value) | H (more than 50% control value) | L (50% or less control value) | H (more than 50% control value) |
| CCn1c(-c2c(F)cc(F)cc2F)c(C(C)(OC)C(C)C)cc(Br)c1=O (stereo not shown) [compound 465] | H (more than 50% control value) | L (50% or less control value) | H (more than 50% control value) | H (more than 50% control value) | H (more than 50% control value) | H (more than 50% control value) | H (more than 50% control value) | H (more than 50% control value) |
| CCOC(C)(c1cc(Br)c(=O)n(CC)c1-c1c(F)cc(F)cc1F)C(C)C (stereo not shown) [compound 466] | L (50% or less control value) | L (50% or less control value) | L (50% or less control value) | L (50% or less control value) | L (50% or less control value) | H (more than 50% control value) | L (50% or less control value) | H (more than 50% control value) |
| CCn1c(-c2c(F)cc(OC)cc2F)c(C(C)(OC)C(C)C)cc(Br)c1=O (stereo not shown) [compound 467] | H (more than 50% control value) | L (50% or less control value) | H (more than 50% control value) | H (more than 50% control value) | H (more than 50% control value) | H (more than 50% control value) | H (more than 50% control value) | H (more than 50% control value) |
| CCOC(C)(c1cc(Br)c(=O)n(CC)c1-c1c(F)cc(OC)cc1F)C(C)C (stereo not shown) [compound 468] | H (more than 50% control value) | H (more than 50% control value) | H (more than 50% control value) | H (more than 50% control value) | H (more than 50% control value) | H (more than 50% control value) | H (more than 50% control value) | H (more than 50% control value) |
| CCCc1ccc(=O)n(CC(F)F)c1-c1c(F)cc(F)cc1F [compound 470] | L (50% or less control value) | L (50% or less control value) | L (50% or less control value) | H (more than 50% control value) | L (50% or less control value) | L (50% or less control value) | L (50% or less control value) | H (more than 50% control value) |
| CCCc1cc(Cl)c(=O)n(CC(F)F)c1-c1c(F)cc(F)cc1F [compound 471] | H (more than 50% control value) | L (50% or less control value) | H (more than 50% control value) | H (more than 50% control value) | H (more than 50% control value) | H (more than 50% control value) | H (more than 50% control value) | H (more than 50% control value) |
| CCCc1cc(Br)c(=O)n(CC(F)F)c1-c1c(F)cc(F)cc1F [compound 472] | H (more than 50% control value) | L (50% or less control value) | H (more than 50% control value) | H (more than 50% control value) | H (more than 50% control value) | H (more than 50% control value) | H (more than 50% control value) | H (more than 50% control value) |
| CCCc1cc(I)c(=O)n(CC(F)F)c1-c1c(F)cc(F)cc1F [compound 473] | H (more than 50% control value) | L (50% or less control value) | L (50% or less control value) | L (50% or less control value) | H (more than 50% control value) | H (more than 50% control value) | H (more than 50% control value) | H (more than 50% control value) |
